The values below come from publication PMC9259591, “Irigenin, a novel lead from Iris confusa for management of Helicobacter pylori infection with selective COX-2 and HpIMPDH inhibitory potential” (Scientific Reports, 2022).

A word on the IC50: it is the concentration that gives 50% inhibition.

In test [1] the target is T1, H. pylori inosine-5′-monophosphate dehydrogenase (HpIMPDH) (Helicobacter pylori, UniProt P56088).
T1 sequence (P56088 1-481): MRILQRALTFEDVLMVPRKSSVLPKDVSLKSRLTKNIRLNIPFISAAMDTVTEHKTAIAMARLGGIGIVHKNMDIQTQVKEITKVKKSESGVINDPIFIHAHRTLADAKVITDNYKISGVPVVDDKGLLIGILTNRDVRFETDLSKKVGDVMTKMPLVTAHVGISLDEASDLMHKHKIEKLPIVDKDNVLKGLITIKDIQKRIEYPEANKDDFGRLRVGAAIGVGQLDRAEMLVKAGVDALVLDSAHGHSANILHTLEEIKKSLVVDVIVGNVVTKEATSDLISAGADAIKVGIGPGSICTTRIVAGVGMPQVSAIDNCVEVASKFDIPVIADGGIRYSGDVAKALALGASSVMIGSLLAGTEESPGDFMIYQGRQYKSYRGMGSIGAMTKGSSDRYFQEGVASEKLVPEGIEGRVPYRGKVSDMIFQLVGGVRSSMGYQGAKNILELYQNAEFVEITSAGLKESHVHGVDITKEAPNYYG
The experiment in a line: In vitro HpIMPDH inhibition assay (NADH fluorescence). In kind it is biochemical. Further details: HpIMPDH inhibitory activity: unit not given here. The procedure: The assay was carried out according to Galal[40] and was described in detail in the supplementary file.
Thus, irigenin was selected to test its HpIMPDH inhibitory activity by monitoring NADH production at concentration range of 10–0.078 µM compared to clarithromycin as standard drug. Also, to examine irigenin selectivity toward the bacterial IMPDH, human hIMPDH2 inhibition potential was assayed.
The assay was carried out in a final volume of two hundred μL in black 96-well plate (Tarsons Products Pvt. Ltd., Kolkata, India) with a reaction buffer composed of one hundred mM KCl, fifty mM Tris–HCl (pH 8.6), and one mM dithiothreitol (DTT). One hundred nM H. pylori inosine-5′-monophosphate dehydrogenase (HpIMPDH) in the presence/absence of the tested compound were used. The assay mixture was then incubated at 37 °C for 10 min, and the reaction was initiated by the adding 250 μM of inosine 5ʹ‐monophosphate (IMP) and 300 μM of nicotinamide adenine dinucleotide (NAD^+) substrate buffer. The assay was allowed to proceed for 45 min at 37 °C.
The formed NADH was measured by recording the fluorescence (excitation 340 nm, emission 440 nm) using PerkinElmer EnVision Multilabel Reader (Waltham, MA) at an interval of one min. DMSO and clarithromycin were used as vehicle control and positive control, respectively. The concentration of the tested sample leading to 50% HpIMPDH inhibition (IC50) was estimated.

Test [2] relates to RAW 264.7 macrophage cell line (NO). Briefly: nitric oxide (NO) inhibitory activity in lipopolysaccharide-stimulated macrophages. The class given is cell-based, murine. As to conditions: Mus musculus, RAW264.7; RAW 264.7 cells, 1 µg/mL lipopolysaccharide. The procedure: The detailed procedures were described in the supplementary file.
The cell was incubated at 37 °C in 5% carbon dioxide. RAW 264.7 cells were seeded onto a 96-well plate (1×10^5 cells/well) and incubated for 24 h. […] Followed by incubation, the cells stimulated with 1µg/mL of lipopolysaccharide for another 24 h. The supernatant was gently transferred to new 96-well plates and used for NO determination. L-N 6 - (1-iminoethyl) lysine hydrochloride), is used as standard drug. The absorbance (Abs) was measured in a microplate reader at 540 nm ^3. The percentage inhibition was calculated using the following formula:
Inhibition (%) = 1-[Control-Test] Control × 100.

The target of a further test is T2, ovine COX-1 (Ovis aries, UniProt P05979).
T2 construct: purchased
The experiment in a line: COX-1 inhibitory activity, colourimetric COX inhibitor screening assay kit. The class given is biochemical. As to conditions: ovine COX-1; read-out: IC50 (COX-1). As to the method:
(§1) The inhibitory COX activity was assayed colourimetrically by examining the inhibition of the ovine COX-1 and human recombinant COX-2 enzymes as described by George et al.[38], using a COX inhibitor screening assay kit. The detailed procedures were described in the supplementary file.
(§2) The inhibitory COX activity was assayed colourimetrically by examining the inhibition of the ovine COX-1 and human recombinant COX-2 enzymes as described by George et al. ^2, using a COX inhibitory screening assay kit. This assay determines the COX peroxidase activity by monitoring the appearance of N,N,N',N'-tetramethyl-p-phenylenediamine (TMPD). Assay buffer (150 μL 0.1 M Tris–HCl pH 8.0), 10 μL heme and 10μL enzyme (COX-1 or COX-2) were added in each well. Ten μL of each tested sample concentration was added to each well and incubated for 15 minutes at 37°C. After incubation, 20 μL of TMPD was added to each well. For initiating the reaction, 10 μL 10 mM arachidonic acid was added and the plates were further incubated for another 2 minutes at 37°C. For terminating the reaction, 50 μL 1 N HCl and saturated stannous chloride were added.
(§3) Reaction mixture containing assay buffer and heme acted as the blank and a mixture with either COX-1 or COX-2 assay buffer and heme acted as the 100% initial activity (IA). […] The absorbances of oxidized TMPD (blue colour) were read in ELISA plate reader at 590 nm. The % inhibition was calculated using the following formula:
(§4) COX % Inhibition= [(100%IA−Inhibitor)/ 100% IA x 100]. Where, IA: 100% initial activity.
(§5) The concentration at which the tested sample produces 50% inhibition of COX-1 and/or COX-2 (IC50) was determined. The selectivity index (SI) was calculated also as IC50 (COX-1)/ (COX-2).

A further test deals with T3, human recombinant COX-2 (Homo sapiens, UniProt P35354).
T3 construct: purchased
T3 sequence (P35354 18-604): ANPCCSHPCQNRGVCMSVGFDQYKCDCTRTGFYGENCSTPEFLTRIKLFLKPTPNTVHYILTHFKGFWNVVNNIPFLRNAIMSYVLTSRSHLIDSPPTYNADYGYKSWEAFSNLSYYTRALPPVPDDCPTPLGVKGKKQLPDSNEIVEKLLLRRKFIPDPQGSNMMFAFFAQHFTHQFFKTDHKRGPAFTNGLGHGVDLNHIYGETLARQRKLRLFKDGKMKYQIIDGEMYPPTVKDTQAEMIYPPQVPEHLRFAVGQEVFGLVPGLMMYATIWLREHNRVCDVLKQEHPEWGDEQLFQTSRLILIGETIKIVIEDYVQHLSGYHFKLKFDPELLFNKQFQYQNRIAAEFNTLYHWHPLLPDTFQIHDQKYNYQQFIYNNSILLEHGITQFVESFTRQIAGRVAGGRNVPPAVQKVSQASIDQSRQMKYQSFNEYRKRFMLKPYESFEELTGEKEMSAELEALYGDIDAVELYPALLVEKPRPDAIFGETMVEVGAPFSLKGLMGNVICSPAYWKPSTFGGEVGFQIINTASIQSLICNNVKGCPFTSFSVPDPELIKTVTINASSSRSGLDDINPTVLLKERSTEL
Briefly: COX-2 inhibitory activity, colourimetric COX inhibitor screening assay kit. The class given is biochemical. The procedure: as §1, §2, §3, §4, §5

T2 sequence (P05979 25-600): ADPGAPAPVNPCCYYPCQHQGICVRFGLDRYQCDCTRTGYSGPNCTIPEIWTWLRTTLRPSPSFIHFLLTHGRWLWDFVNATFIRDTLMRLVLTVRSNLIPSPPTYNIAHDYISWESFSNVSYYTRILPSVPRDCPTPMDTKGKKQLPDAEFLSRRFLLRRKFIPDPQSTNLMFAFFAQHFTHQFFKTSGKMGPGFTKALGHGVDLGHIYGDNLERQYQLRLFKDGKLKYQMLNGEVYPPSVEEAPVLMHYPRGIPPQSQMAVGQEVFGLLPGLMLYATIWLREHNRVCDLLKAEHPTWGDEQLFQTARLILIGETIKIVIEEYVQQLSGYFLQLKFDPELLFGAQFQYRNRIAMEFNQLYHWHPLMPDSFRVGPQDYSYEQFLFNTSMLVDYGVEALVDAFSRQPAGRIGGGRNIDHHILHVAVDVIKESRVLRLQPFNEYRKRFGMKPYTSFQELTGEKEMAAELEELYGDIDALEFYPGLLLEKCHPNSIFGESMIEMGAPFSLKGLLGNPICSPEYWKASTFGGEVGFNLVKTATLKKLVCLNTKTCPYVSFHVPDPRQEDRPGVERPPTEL

Take `COc1cc(-c2coc3cc(O)c(OC)c(O)c3c2=O)cc(O)c1OC` [Irigenin (P3), 3′,5,7-trihydroxy-4′,5′,6 trimethoxyisoflavone]: the IC50 is 2.07 ± 1.9 µM in test [1], 42.5 ± 1.8 µM in test [2], 35.2 ± 1.4 µM at ovine COX-1 and 10.8 ± 0.86 µM on human recombinant COX-2 (human recombinant COX-2). For the same compound, the HpIMPDH inhibitory activity in test [1] (sample conc. 0.078 (range 10–0.078 µM)) is on record as 0.00; in test [1] (sample conc. 0.156 (range 10–0.078 µM)), 0.00; in test [1] (sample conc. 0.313 (range 10–0.078 µM)) it was 6.14 ± 1.90; in test [1] (sample conc. 0.625 (range 10–0.078 µM)), 10.25 ± 2.80; in test [1] (sample conc. 1.25 (range 10–0.078 µM)), 24.19 ± 1.70; in test [1] (sample conc. 2.5 (range 10–0.078 µM)), 59.31 ± 1.40. In addition, the HpIMPDH inhibitory activity in test [1] (sample conc. 5 (range 10–0.078 µM)) worked out at 71.08 ± 1.30; in test [1] (sample conc. 10 (range 10–0.078 µM)), 83.25 ± 0.58. For the same compound, on human recombinant COX-2 (selectivity index calculated as IC50 (COX-1)/(COX-2)), the “SI (COX-1/COX-2)” value is recorded as 3.26.
